Source: article PMC5974720, “Urate transport function of rat sodium‐dependent nucleobase transporter 1” (Physiological Reports, 2018)
One block for each molecule: values may come before it.

Key:
[1] = target: T1, rat sodium-dependent nucleobase transporter 1 (rSNBT1) (Rattus norvegicus, UniProt D2KX48); assay: inhibition of rSNBT1-specific […]urate uptake in stably transfected MDCKII cells; type: cell-based
T1 construct: gene Slc23a4
T1 sequence (D2KX48 1-614): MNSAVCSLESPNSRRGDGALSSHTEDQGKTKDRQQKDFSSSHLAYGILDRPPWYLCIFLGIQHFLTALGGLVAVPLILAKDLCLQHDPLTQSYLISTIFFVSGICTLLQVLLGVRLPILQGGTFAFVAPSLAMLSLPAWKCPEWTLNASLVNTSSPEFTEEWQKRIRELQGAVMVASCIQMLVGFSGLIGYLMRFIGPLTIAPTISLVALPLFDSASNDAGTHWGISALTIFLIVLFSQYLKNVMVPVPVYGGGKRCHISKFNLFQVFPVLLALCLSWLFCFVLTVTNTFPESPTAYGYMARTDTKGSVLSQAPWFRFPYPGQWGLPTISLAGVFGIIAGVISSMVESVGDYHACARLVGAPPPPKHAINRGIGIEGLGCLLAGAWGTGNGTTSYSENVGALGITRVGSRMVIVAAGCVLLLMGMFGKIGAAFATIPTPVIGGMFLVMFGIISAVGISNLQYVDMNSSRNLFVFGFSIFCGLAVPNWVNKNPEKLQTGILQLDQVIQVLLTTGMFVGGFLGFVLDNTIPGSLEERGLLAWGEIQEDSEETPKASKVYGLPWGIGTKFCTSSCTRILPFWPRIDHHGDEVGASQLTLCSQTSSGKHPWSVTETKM

[2] = target: T1, rat sodium-dependent nucleobase transporter 1 (rSNBT1); assay: inhibition of rSNBT1-specific […]urate uptake in stably transfected MDCKII cells; [3H]uracil uptake in transfected HEK293 cells; type: cell-based
[3] = target: T2, human organic anion transporter 1 (OAT1) (Homo sapiens, UniProt Q4U2R8); assay: […]urate uptake in transiently transfected HEK293 cells; type: cell-based
T2 construct: gene SLC22A6
T2 sequence (Q4U2R8 1-563): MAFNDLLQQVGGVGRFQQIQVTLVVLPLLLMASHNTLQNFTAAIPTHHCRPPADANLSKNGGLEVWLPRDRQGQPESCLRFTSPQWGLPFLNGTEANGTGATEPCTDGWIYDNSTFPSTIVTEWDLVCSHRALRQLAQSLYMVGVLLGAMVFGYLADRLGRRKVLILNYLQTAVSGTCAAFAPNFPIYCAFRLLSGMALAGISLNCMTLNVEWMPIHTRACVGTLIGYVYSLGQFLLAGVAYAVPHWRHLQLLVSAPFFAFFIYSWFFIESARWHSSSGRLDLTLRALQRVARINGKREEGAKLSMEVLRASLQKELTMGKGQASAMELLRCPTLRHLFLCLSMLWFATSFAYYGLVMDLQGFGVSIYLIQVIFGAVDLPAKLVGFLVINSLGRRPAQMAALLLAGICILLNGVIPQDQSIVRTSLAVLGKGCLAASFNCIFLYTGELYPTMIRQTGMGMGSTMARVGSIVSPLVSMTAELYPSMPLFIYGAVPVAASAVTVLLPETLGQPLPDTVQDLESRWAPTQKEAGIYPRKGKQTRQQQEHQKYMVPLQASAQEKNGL

[4] = target: T3, human URAT1 (urate transporter 1) (Homo sapiens, UniProt Q96S37)
T3 construct: gene SLC22A12
T3 sequence (Q96S37 1-553): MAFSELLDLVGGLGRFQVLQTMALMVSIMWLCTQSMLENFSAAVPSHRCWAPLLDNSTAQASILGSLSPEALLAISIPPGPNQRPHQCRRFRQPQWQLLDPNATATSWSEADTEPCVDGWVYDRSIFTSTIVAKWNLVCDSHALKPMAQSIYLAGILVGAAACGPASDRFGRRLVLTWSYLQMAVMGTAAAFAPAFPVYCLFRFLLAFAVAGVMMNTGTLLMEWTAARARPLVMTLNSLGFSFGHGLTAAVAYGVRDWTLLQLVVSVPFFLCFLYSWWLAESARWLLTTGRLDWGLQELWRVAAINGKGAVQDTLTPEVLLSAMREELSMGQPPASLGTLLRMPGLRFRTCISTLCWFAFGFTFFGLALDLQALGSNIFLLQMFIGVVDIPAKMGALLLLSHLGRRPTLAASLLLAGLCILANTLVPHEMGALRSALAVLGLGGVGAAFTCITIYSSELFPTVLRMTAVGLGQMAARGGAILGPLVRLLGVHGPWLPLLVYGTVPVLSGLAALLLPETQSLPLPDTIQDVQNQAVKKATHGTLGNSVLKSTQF

human OAT3 = target: T4, human OAT3 (Homo sapiens, UniProt Q8TCC7); assay: […]urate uptake in transiently transfected HEK293 cells
T4 construct: gene SLC22A8
T4 sequence (Q8TCC7 1-542): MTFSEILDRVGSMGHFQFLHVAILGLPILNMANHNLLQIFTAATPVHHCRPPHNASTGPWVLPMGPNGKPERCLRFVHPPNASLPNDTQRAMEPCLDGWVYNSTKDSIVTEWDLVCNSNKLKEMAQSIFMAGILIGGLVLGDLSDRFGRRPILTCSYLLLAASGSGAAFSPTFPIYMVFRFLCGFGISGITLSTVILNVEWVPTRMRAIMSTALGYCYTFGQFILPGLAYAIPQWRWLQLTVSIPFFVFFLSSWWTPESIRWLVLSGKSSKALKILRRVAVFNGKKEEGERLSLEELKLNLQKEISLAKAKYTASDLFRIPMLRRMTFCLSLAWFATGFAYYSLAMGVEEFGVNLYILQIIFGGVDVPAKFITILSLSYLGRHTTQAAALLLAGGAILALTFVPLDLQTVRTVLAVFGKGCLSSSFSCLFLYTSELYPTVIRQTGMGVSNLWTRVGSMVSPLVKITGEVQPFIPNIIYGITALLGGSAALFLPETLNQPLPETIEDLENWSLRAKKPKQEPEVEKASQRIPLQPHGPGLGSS

[5] = target: T5, rat breast cancer resistance protein (rBCRP) (Rattus norvegicus, UniProt Q80W57); assay: inhibition of rBCRP-mediated urate efflux in HEK293 cells co-expressing rSNBT1 ([…]); type: cell-based
T5 construct: gene Abcg2
T5 sequence (Q80W57 1-657): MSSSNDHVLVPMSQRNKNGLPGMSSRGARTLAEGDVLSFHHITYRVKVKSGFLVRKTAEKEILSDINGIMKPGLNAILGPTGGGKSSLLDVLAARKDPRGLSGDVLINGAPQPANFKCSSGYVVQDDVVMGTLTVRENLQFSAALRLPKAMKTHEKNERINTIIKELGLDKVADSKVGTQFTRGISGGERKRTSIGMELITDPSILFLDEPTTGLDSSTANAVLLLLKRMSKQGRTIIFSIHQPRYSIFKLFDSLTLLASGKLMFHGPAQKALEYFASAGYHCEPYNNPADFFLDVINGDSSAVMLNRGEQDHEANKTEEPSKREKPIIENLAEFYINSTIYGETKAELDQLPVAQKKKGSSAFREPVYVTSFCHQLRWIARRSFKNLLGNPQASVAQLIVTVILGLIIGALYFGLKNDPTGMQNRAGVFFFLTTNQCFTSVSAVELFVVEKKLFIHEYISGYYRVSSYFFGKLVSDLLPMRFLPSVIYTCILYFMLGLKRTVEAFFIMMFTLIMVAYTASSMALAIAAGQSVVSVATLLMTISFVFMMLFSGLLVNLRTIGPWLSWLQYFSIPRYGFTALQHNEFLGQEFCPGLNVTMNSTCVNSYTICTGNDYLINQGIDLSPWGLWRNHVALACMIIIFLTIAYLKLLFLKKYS

[6] = substrate: O=c1[nH]c(=O)c2[nH]c(=O)[nH]c2[nH]1; assay: cells, lysate or membranes; type: cell-based, Rattus norvegicus; settings: Na+ likely to share the same substrate recognition site with uracil

- IC50 ([1]; read-out: IC50): 8.8 ± 2.5 µM
Molecule: Cc1c[nH]c(=O)[nH]c1=O [Thymine]

- IC50 [2]: 28.4 ± 8.5 µM
Molecule: O=c1cc[nH]c(=O)[nH]1 [Uracil]

Molecule: Nc1nc2nc[nH]c2c(=O)[nH]1 [Guanine]
- IC50 [1]: 2.7 ± 0.8 µM

Molecule: O=c1[nH]c(=O)c2[nH]c(=O)[nH]c2[nH]1 [urate]
- [14C]urate uptake in transiently transfected HEK293 cells [3]: When transiently introduced into HEK293 cells, all those transporters raised urate uptake, but to lesser extents than rSNBT1.
- [14C]urate uptake in transiently transfected HEK293 cells [4]: When transiently introduced into HEK293 cells, all those transporters raised urate uptake, but to lesser extents than rSNBT1.
- [14C]urate uptake in transiently transfected HEK293 cells (human OAT3): When transiently introduced into HEK293 cells, all those transporters raised urate uptake, but to lesser extents than rSNBT1.

- IC50 ([1]; read-out: IC50): 10.1 ± 2.4 µM
Molecule: O=c1[nH]cnc2nc[nH]c12 [Hypoxanthine]

Molecule: COc1ccc2c3c([nH]c2c1)[C@H](CC(C)C)N1C(=O)[C@H](CCC(=O)OC(C)(C)C)NC(=O)[C@@H]1C3 [Ko143]
- inhibition of rBCRP-mediated urate efflux in HEK293 cells co-expressing rSNBT1 [5]: Ko143 was effective in inhibiting rBCRP‐mediated urate efflux almost completely at that concentration

B1: rat sodium-dependent nucleobase transporter 1 (rSNBT1) (Rattus norvegicus) (protein)
chain: MNSAVCSLESPNSRRGDGALSSHTEDQGKTKDRQQKDFSSSHLAYGILDRPPWYLCIFLGIQHFLTALGGLVAVPLILAKDLCLQHDPLTQSYLISTIFFVSGICTLLQVLLGVRLPILQGGTFAFVAPSLAMLSLPAWKCPEWTLNASLVNTSSPEFTEEWQKRIRELQGAVMVASCIQMLVGFSGLIGYLMRFIGPLTIAPTISLVALPLFDSASNDAGTHWGISALTIFLIVLFSQYLKNVMVPVPVYGGGKRCHISKFNLFQVFPVLLALCLSWLFCFVLTVTNTFPESPTAYGYMARTDTKGSVLSQAPWFRFPYPGQWGLPTISLAGVFGIIAGVISSMVESVGDYHACARLVGAPPPPKHAINRGIGIEGLGCLLAGAWGTGNGTTSYSENVGALGITRVGSRMVIVAAGCVLLLMGMFGKIGAAFATIPTPVIGGMFLVMFGIISAVGISNLQYVDMNSSRNLFVFGFSIFCGLAVPNWVNKNPEKLQTGILQLDQVIQVLLTTGMFVGGFLGFVLDNTIPGSLEERGLLAWGEIQEDSEETPKASKVYGLPWGIGTKFCTSSCTRILPFWPRIDHHGDEVGASQLTLCSQTSSGKHPWSVTETKM
- Km [6]: 433 ± 113 µM
